# Test results from PMC11395566, “Novel Copper (II) Complexes with Fluorine-Containing Reduced Schiff Base Ligands Showing Marked Cytotoxicity in the HepG2 Cancer Cell Line” (International Journal of Molecular Sciences, 2024).
# Where “and” joins values, the source holds several entries; their conditions need not be identical. Equal values may be shown once.
# Assays:
# Jack bean urease = Jack bean urease (Canavalia ensiformis, UniProt P07374); details: read-out: Urease inhibition IC50 ± SD, 15 min pre-incubation
# Procedure: The urease inhibition activity of complexes was determined using the modified method reported by [48]. The assay mixture, containing 75 μL of Jack bean urease and 75 μL of the tested compounds with various concentrations dissolved in DMSO, was pre-incubated for 15 min on a 96-well assay. Afterwards, 75 μL of phosphate buffer at pH 6.8 (containing phenol red 0.18 mM) and urea (400 mM) were added and incubated at room temperature. We used microplate reader (560 nm) to measure the reaction time required for enough ammonium carbonate to form to raise the pH of the phosphate buffer from 6.8 to 7.7. The end-point of the reaction was determined by the color change of the phenol red indicator. Acetohydroxamic acid was used as a reference.
# [1] = system: HepG2 hepatocellular carcinoma cells; assay: Cytotoxicity, MTT assay; format: cell-based, human; details: for IC50: HepG2, 24 h incubation, MTT
# Procedure: The cytotoxic activity of the compounds L11–L14 and CuL11–CuL14 was evaluated in hepatocellular carcinoma HepG2 cells using the MTT assay. This colorimetric assay measures the reduction of the yellow tetrazolium salt 3-(4,5-dimethylthiazol-2-yl)-2,5-diphenyltetrazolium bromide (MTT) to purple formazan crystals by metabolically active cells.
# HepG2 cells were seeded in 96-well plates at 70% confluency and pre-cultivated for 24 h before experiment in RPMI 1640 medium (Biosera, Cholet, France) with 10% fetal bovine serum, 1000 U·mL^−1 penicillin, and […] streptomycin, at 37 °C, 5% CO2 (maximum passage number 23).
# HepG2 cells were incubated for 24 h with different concentrations (2–250 µM) of the tested compounds. The stock solutions of the compounds were freshly prepared in DMSO (Sigma-Aldrich, Burlington, MA, USA). Cells treated only with the RPMI 1640 medium served as a negative control, medium and DMSO served as a solvent control, and cells treated with cisplatin solution (Accord Healthcare, Harrow, UK) (2–250 µM) served as a positive control. After treatment, HepG2 cells were incubated for 4 h with MTT (Sigma Aldrich) solution (1mg/mL in PBS and complete RPMI medium). Then, the MTT solution was removed, and the formazan crystals were dissolved in DMSO for 30 min. The absorbance intensity was measured using an Epoch Spectrophotometer (BioTek, Winooski, VT, USA) at 570 nm. The experiments were performed in triplicate and cell cytotoxicity was expressed as a percentage relative to the untreated cells. Unexposed cells were used as a control and considered as having 100% cell viability. The viability of cells was calculated using the following formula:Viable cells (%) = A (treated cells)/A (control cells) × 100
# The IC50 values were calculated using a four-parameter logistic regression model.
# [2] = system: T1, bovine serum albumin (BSA); assay: Interaction with BSA by quenching of tryptophane fluorescence; format: binding; details: for BSA binding constant K: Scatchard equation; for BSA fluorescence quenching rate constant kq / BSA fluorescence dynamic quenching constant Ksv: Stern–Volmer equation, 30 µM BSA in citrate buffer; for BSA fluorescence dynamic quenching constant Ksv: emission 336 nm
# T1 construct: Bovine serum albumin (BSA) was chosen over human serum albumin (HSA) as the model protein target; purchased Sigma-Aldrich
# Procedure: The interaction of all prepared copper complexes with BSA was studied by quenching the BSA fluorescence. BSA was dissolved in citrate buffer at the initial concentration of 30 µM. The quenching of the emission intensity of BSA tryptophane residues at 336 nm was monitored using the tested complexes (1 mM solution in DMSO) as quenchers with gradually increasing concentrations. The fluorescence emission spectra were recorded in the range of 300–420 nm. The wavelength of the excitation radiation was 280 nm. Measured data were used to study the interaction of a quencher with serum albumins using the Stern–Volmer (Equation (1)) and Scatchard (Equation (2)) equations, obtaining the Stern–Volmer constant KSV (M^−1), BSA quenching constant kq (M^−1 s^−1), binding constants KBSA (M^−1), and values of the number of binding sites n on albumin [45]. (1) I0/I=1+kqτ0 [Q]=1+KSV [Q] (2) ΔI/I0/[Q]=nKBSA−KBSAΔI/I0 where I0 = initial tryptophane fluorescence intensity of BSA, I = tryptophane fluorescence intensity of BSA after the addition of the complex, kq = quenching rate constant of BSA, KSV = dynamic quenching constant, τ0 = the average lifetime of BSA without the quencher, and [Q] = concentration of the quencher. KBSA is the bovine serum albumin binding constant and n is the number of binding sides per albumin.
# C. albicans CCM 8186 = assay: Antimicrobial activity, broth dilution method; format: cell-based, Candida albicans; details: 24 h, 24 °C
# Procedure: (§1) The antimicrobial activities of the synthesized copper (II) complexes were evaluated against E. coli CNCTC 377/79 (Gram-negative bacterium), S. aureus CNCTC Mau 29/58 (Gram-positive bacterium), and the yeast C. albicans CCM 8186. Bacterial strains were obtained from the Czech National Collection of Type Cultures (National Institute of Public Health, Prague, Czech Republic) and the yeast was purchased from the Czech Collection of Microorganisms (Masaryk University, Brno, Czech Republic). Bacteria were grown aerobically in nutrient broth (IMUNA PHARM, Šarišské Michaľany, Slovakia) and the yeast in BD Difco Sabouraud dextrose broth (Becton, Dickinson and Company, Franklin Lakes, NJ, USA) for 18 h at 37 °C or 48 h at 24 °C, respectively. Cultures were then maintained at 4 °C on appropriate solid medium: Endo agar (Oxoid Ltd., Basingstoke, UK) for E. coli, blood agar (Biomark Laboratories, Pune, India) for S. aureus, and BD Sabouraud dextrose agar (Becton, Dickinson and Company, Franklin Lakes, NJ, USA) for C. albicans. Working cultures were prepared by the incubation of a single colony of each microorganism in NB (bacteria) or SDB (yeast) for 18 h at 37 °C or 48 h at 24 °C, respectively. A microbial suspension was prepared in saline solution (0.85% NaCl) according to McFarland standard No 0.5 using a Lambda 35 UV/VIS Spectrophotometer (PerkinElmer Inc., Shelton, CT, USA) to obtain a turbidity (concentration) of ca 1.5 × 10^8 cfu/cm^3. After the dilution in the appropriate liquid medium (NB for bacteria and SDB for yeast), a working turbidity of 1.5 × 10^7 cfu/cm^3 was prepared.
# (§2) Antimicrobial activity was determined using the broth dilution method as described in [7]. Stock solutions with initial concentrations of approx. 45 mM for ligands and 27 mM for copper complexes were prepared in DMSO immediately before use. For comparison, ciprofloxacine was used as a standard compound. Working test ligands and copper complexes were prepared by the two-fold serial dilution of stock solutions in sterile doubly concentrated NB or SDB to a final volume 100 mm^3 within the 96-well microplates. Freshly prepared inoculum (5 mm^3) of the tested microorganism was added to each appropriate well (bacteria into the plates with NB, C. albicans into the plates with SDB). The final turbidity of each microorganism in each well was ca 7.5 × 10^5 cfu/cm^3. […] Each concentration was assayed in triplicate. […]
# calf thymus DNA (ct-DNA) = assay: Quenching of the fluorescence of EB-DNA adduct (ethidium bromide displacement); format: binding; details: for EB-DNA dynamic quenching constant Ksv / EB-DNA fluorescence quenching rate constant kq: Stern–Volmer equation; for ΔI/I0, quenching of EB-DNA fluorescence: complex 0 to 2 × 10^−4 M
# Procedure: A stock solution of ct-DNA was prepared by dissolving 6 mg of ct-DNA in 5 mL of citrate buffer. The ability of the compounds to displace EB from its EB-DNA conjugate was investigated by fluorescence emission spectroscopy. The EB-DNA conjugate was prepared by adding 20 µM EB and 26 µM ct-DNA to citrate buffer. The measurements were performed by the gradual addition of the complex solution in DMSO (1 mM) to the EB-DNA conjugate solution and observing the changes in the fluorescence spectra. The spectra were recorded in the range of 550–700 nm and the excitation wavelength was set to 515 nm. The Stern–Volmer constant KSV was used to evaluate the quenching efficiency of the complexes according to the Stern–Volmer equation (Equation (1)).
# [3] = system: S. aureus CNCTC Mau 29/58; assay: Antimicrobial activity, broth dilution method; format: cell-based, Staphylococcus aureus; details: 24 h, 37 °C
# Procedure: as §1, §2
# E. coli CNCTC 377/79 = assay: Antimicrobial activity, broth dilution method; format: cell-based, Escherichia coli; details: 24 h, 37 °C
# Procedure: as §1, §2
# Chain of Jack bean urease (P07374 whole entry, looked up): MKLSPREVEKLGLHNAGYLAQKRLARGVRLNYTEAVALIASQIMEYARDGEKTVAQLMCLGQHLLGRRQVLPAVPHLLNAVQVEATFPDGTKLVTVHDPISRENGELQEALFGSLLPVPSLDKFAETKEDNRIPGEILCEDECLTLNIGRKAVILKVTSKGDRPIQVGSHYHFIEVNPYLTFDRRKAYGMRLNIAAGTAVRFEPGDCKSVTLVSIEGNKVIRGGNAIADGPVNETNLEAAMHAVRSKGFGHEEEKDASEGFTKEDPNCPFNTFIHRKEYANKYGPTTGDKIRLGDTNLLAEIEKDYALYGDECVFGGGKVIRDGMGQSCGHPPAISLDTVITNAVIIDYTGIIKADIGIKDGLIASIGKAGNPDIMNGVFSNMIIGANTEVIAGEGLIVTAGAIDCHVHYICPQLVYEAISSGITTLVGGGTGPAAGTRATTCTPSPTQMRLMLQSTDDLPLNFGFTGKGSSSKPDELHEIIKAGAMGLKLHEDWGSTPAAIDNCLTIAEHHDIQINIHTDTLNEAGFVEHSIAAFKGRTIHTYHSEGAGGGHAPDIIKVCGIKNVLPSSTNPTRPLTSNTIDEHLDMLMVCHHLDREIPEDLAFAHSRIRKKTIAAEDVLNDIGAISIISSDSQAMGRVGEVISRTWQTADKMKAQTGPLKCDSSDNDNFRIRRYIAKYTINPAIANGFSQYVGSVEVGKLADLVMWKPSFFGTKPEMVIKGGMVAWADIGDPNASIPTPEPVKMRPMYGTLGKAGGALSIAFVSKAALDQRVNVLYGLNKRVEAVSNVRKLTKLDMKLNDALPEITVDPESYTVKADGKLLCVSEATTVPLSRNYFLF
Molecule,IC50 (Jack bean urease) [µM],IC50 [1] [µM],BSA binding constant K [2],BSA fluorescence quenching rate constant kq [2],BSA fluorescence dynamic quenching constant Ksv [2],MIC C. albicans (C. albicans CCM 8186) [µM],EB-DNA dynamic quenching constant Ksv (calf thymus DNA (ct-DNA)),EB-DNA fluorescence quenching rate constant kq (calf thymus DNA (ct-DNA)),"ΔI/I0, quenching of EB-DNA fluorescence (calf thymus DNA (ct-DNA)) [%]",MIC S. aureus [3] [µM],MIC E. coli (E. coli CNCTC 377/79) [µM],EB-DNA fluorescence quenching constant (kq) (calf thymus DNA (ct-DNA)) [M⁻¹ s⁻¹],"cell survival ([1]; HepG2, at a 50 µM concentration) [%]"
CC(=O)NO [acetohydroxamic acid],185,,,,,,,,,,,,
"N.N.[Cl][Pt][Cl] [cisplatin, reference compound]",,337 ± 6.7,,,,,,,,,,,
"Dichloro[(±)-trans-N,N′-bis-(3,5-bis-trifluoromethylbenzyl)-cyclohexane-1,2-diamine]copper (II) [Cu-L14]",,189 ± 7.1,5.13 (±0.50) × 10^3 M^−1,6.39 (±0.19) × 10^11 M^−1s^−1,6.39 (±0.19) × 10^3 M^−1,1705.6,3.50 (±0.09) M^−1 × 10^3,1.52 (±0.04) M^−1 s^−1 × 10^11,60.7,213.2,213.2,,
"Dichloro[(±)-trans-N,N′-bis-(3,5-difluorobenzyl)-cyclohexane-1,2-diamine]copper (II) [Cu-L13]",,64.4 ± 3.2,4.70 (±0.32) × 10^3 M^−1,8.46 × 10^11 M^−1s^−1 and 8.46 (±0.26) × 10^11 M^−1s^−1,8.46 (±0.26) × 10^3 M^−1,1698.1,3.51 (±0.08) M^−1 × 10^3,1.53 (±0.03) M^−1 s^−1 × 10^11,60.3,424.5,212.3,,
"Dichloro[(±)-trans-N,N′-bis-(4-fluorobenzyl)-cyclohexane-1,2-diamine]copper (II) [Cu-L11]",,61.3 ± 3.4,5.99 (±0.44) × 10^3 M^−1,3.88e+11 M⁻¹ s⁻¹,3.90 (±0.08) × 10^3 M^−1,1738.1,3.40 (±0.08) M^−1 × 10^3,1.48 (±0.04) M^−1 s^−1 × 10^11,61.3,217.3,217.3,1.48e+11,
"Dichloro[(±)-trans-N,N′-bis-(4-trifluoromethylbenzyl)-cyclohexane-1,2-diamine]copper (II) [Cu-L12]",,28.7 ± 2,8.59 (±0.64) × 10^3 M^−1,5.62 (±0.20) × 10^11 M^−1s^−1,5.62 (±0.20) × 10^3 M^−1,855.3,3.58 (±0.09) M^−1 × 10^3,1.56 (±0.04) M^−1 s^−1 × 10^11,59.7,26.7,26.7,,9.40
